{"source": "patent US20170333391A1", "about": "“METHOD FOR DELAYING THE ONSET OF PULMONARY FIBROSIS OR TREATING PULMONARY FIBROSIS” (EVERFRONT BIOTECH INC., priority 2016, published 2017)", "key": {"[1]": {"system": "IL-β", "assay": "IL-β mRNA in mouse pulmonary tissue, RT-PCR", "format": "in vivo, mice", "conditions": "Bleomycin sulfate, normal control = 1, oil group = 2.34", "excerpt": "24 C57B/L6 mice (age: four weeks) were separated into four groups (6 mice in each group). […]\nThen, for another portion of ground samples of each group, the total RNAs were extracted using an RNeasy Mini Kit. The QuantiTect Reverse Transcription Kit was used to conduct reverse transcription on the total RNA to obtain the cDNA. […]"}, "[2]": {"system": "BMP-7 protein", "assay": "BMP-7 protein expression in TGF-β1-induced NHLF, western blotting (2-2)", "format": "cell-based, human", "conditions": "TGF-β1-only control group = 1", "experimental": "Normal Human lung fibroblasts (NHLF) were seeded into 6 cm culture dishes at a density of 2×10^5 cells/dish, comprising a control group and six experimental groups (7 dishes in total). The cells were cultured until the next day, and then the mediums were removed. Each group was respectively treated under the following conditions to conduct follow-up experiments: • (1) Positive control group: cells were cultured in a FGM-2 medium containing 1% serum and TGF-β1 (5 ng/ml) for 36 hours; • (2) Group I: cells were firstly cultured in a FGM-2 medium containing 1% serum and TGF-β1 (5 ng/ml) for 12 hours, and then compound (1) was added into the medium to provide a final concentration of 15 μg/ml; thereafter, the cells were cultured for another 24 hours; • (3) Group II: cells were firstly cultured in a FGM-2 medium containing 1% serum and TGF-β1 (5 ng/ml) for 12 hours, and then compound (1) was added into the medium to provide a final concentration of 25 μg/ml; thereafter, the cells were cultured for another 24 hours; • (4) Group III: cells were firstly cultured in a FGM-2 medium containing 1% serum and TGF-β1 (5 ng/ml) for 12 hours, and then compound (1) was added into the medium to provide a final concentration of 35 μg/ml; thereafter, the cells were cultured for another 24 hours; • (5) Group IV: cells were firstly cultured in a FGM-2 medium containing 1% serum and TGF-β1 (5 ng/ml) for 12 hours, and then the Pirfenidone was added into the medium to provide a final concentration of 100 μg/ml; thereafter, the cells were cultured for another 24 hours; • (6) Group V: cells were firstly cultured in a FGM-2 medium containing 1% serum and TGF-β1 (5 ng/ml) for 12 hours, and then the Pirfenidone was added into the medium to provide a final concentration of 250 μg/ml; thereafter, the cells were cultured for another 24 hours; and • (7) Group VI: cells were firstly cultured in a FGM-2 medium containing 1% serum and TGF-β1 (5 ng/ml) for 12 hours, and then the Pirfenidone was added into the medium to provide a final concentration of 500 μg/ml; thereafter, the cells were cultured for another 24 hours.\n(§1) Thereafter, the proteins in the cells of each group were extracted, and the expressions of type I collagen, BMP-7 protein and TGF-β protein in the NHLF cells of each group were measured with western blotting. The results of the control group served as the basis for calculating the relative expression levels of the other groups."}, "[3]": {"system": "BMP-7 protein", "assay": "BMP-7 protein expression in NHLF, western blotting (3-1)", "format": "cell-based, human", "experimental": "(§2) Normal Human lung fibroblasts (NHLF) were seeded into 6 cm culture dishes at a density of 2×10^5 cells/dish, comprising a control group and six experimental groups (7 dishes in total). The cells were cultured until the next day, and then the mediums were removed. Each group was respectively treated under the following conditions to conduct follow-up experiments: • (1) Control group: cells were cultured in a FGM-2 medium containing 10% serum for 36 hours; • (2) Group i: cells were cultured in a FGM-2 medium containing 1% serum for 36 hours; • (3) Group ii: cells were firstly cultured in a FGM-2 medium containing 1% serum for 12 hours, and then compound (1) was added into the medium to provide a final concentration of 15 μg/ml; thereafter, the cells were cultured for another 24 hours; • (4) Group iii: cells were firstly cultured in a FGM-2 medium containing 1% serum for 12 hours, and then compound (1) was added into the medium to provide a final concentration of 25 μg/ml; thereafter, the cells were cultured for another 24 hours; • (5) Group iv: cells were cultured in a FGM-2 medium containing 1% serum and TGF-β1 (5 ng/ml) for 36 hours; • (6) Group v: cells were firstly cultured in a FGM-2 medium containing 1% serum and TGF-β1 (5 ng/ml) for 12 hours, and then compound (1) was added into the medium to provide a final concentration of 15 μg/ml; thereafter, the cells were cultured for another 24 hours; and • (7) Group vi: cells were firstly cultured in a FGM-2 medium containing 1% serum and TGF-β1 (5 ng/ml) for 12 hours, and then compound (1) was added into the medium to provide a final concentration of 25 μg/ml; thereafter, the cells were cultured for another 24 hours.\nas §1, with “of” for “of type I collagen,”, “BMP-7 protein, TGF-β” for “BMP-7”, “α-SMA” for “TGF-β”, “blotting, wherein the β-actin served as the internal control.” for “blotting.”"}, "[4]": {"system": "TGF-β protein", "assay": "TGF-β protein expression in NHLF, western blotting (3-1)", "format": "cell-based, human", "experimental": "as §2\nas §1, with “of” for “of type I collagen,”, “BMP-7 protein, TGF-β” for “BMP-7”, “α-SMA” for “TGF-β”, “blotting, wherein the β-actin served as the internal control.” for “blotting.”"}}}
{"smiles": "CCCC=C1OC(=O)c2ccccc21", "note": "[compound (1)]", "values": [{"measurement": "Relative expression level (fold) IL-β", "setting": "[1]; High-dose group: mRNA in pulmonary tissue, compound (1) 50 mg/kg-body weight orally every day for 30 days", "value": 0.52, "unit": "fold"}, {"measurement": "Relative expression level (fold) IL-β", "setting": "[1]; Low-dose group: mRNA in pulmonary tissue, compound (1) 10 mg/kg-body weight orally every day for 30 days", "value": 1.02, "unit": "fold"}, {"measurement": "Relative expression level (fold) BMP-7 protein", "setting": "[2]; Group I: TGF-β1 5 ng/ml 12 h, then compound (1) 15 μg/ml 24 h", "value": 1.57, "unit": "fold"}, {"measurement": "Relative expression level (fold) BMP-7 protein", "setting": "[2]; Group II: TGF-β1 5 ng/ml 12 h, then compound (1) 25 μg/ml 24 h", "value": 1.80, "unit": "fold"}, {"measurement": "Relative expression level (fold) BMP-7 protein", "setting": "[2]; Group III: TGF-β1 5 ng/ml 12 h, then compound (1) 35 μg/ml 24 h", "value": 1.68, "unit": "fold"}, {"measurement": "Relative expression level (fold) BMP-7 protein", "setting": "[3]; Group ii: 1% serum 12 h, then compound (1) 15 μg/ml 24 h, no TGF-β1, 10% serum control = 1, 1% serum group i = 1", "value": 0.91, "unit": "fold"}, {"measurement": "Relative expression level (fold) BMP-7 protein", "setting": "[3]; Group iii: 1% serum 12 h, then compound (1) 25 μg/ml 24 h, no TGF-β1, 10% serum control = 1, 1% serum group i = 1", "value": 0.81, "unit": "fold"}, {"measurement": "Relative expression level (fold) BMP-7 protein", "setting": "[3]; Group v: 1% serum + TGF-β1 5 ng/ml 12 h, then compound (1) 15 μg/ml 24 h, 10% serum control = 1, TGF-β1-only group iv = 0.82", "value": 0.76, "unit": "fold"}, {"measurement": "Relative expression level (fold) BMP-7 protein", "setting": "[3]; Group vi: 1% serum + TGF-β1 5 ng/ml 12 h, then compound (1) 25 μg/ml 24 h, 10% serum control = 1, TGF-β1-only group iv = 0.82", "value": 1.07, "unit": "fold"}, {"measurement": "Relative expression level (fold) TGF-β protein", "setting": "[4]; Group ii: 1% serum 12 h, then compound (1) 15 μg/ml 24 h, no TGF-β1, 10% serum control = 1, 1% serum group i = 0.66", "value": 0.63, "unit": "fold"}, {"measurement": "Relative expression level (fold) TGF-β protein", "setting": "[4]; Group iii: 1% serum 12 h, then compound (1) 25 μg/ml 24 h, no TGF-β1, 10% serum control = 1, 1% serum group i = 0.66", "value": 0.52, "unit": "fold"}, {"measurement": "Relative expression level (fold) TGF-β protein", "setting": "[4]; Group v: 1% serum + TGF-β1 5 ng/ml 12 h, then compound (1) 15 μg/ml 24 h, 10% serum control = 1, TGF-β1-only group iv = 0.80", "value": 0.79, "unit": "fold"}, {"measurement": "Relative expression level (fold) TGF-β protein", "setting": "[4]; Group vi: 1% serum + TGF-β1 5 ng/ml 12 h, then compound (1) 25 μg/ml 24 h, 10% serum control = 1, TGF-β1-only group iv = 0.80", "value": 0.59, "unit": "fold"}]}
